Test results reported in article PMC5811539, “Expression, Purification and Characterization of the Human Cannabinoid 1 Receptor” (Scientific Reports, 2018).

Key:
hΔCB1 = tested on: hΔCB1; design: method as in unpublished results; settings: HEK293 cells; ref unpublished results; cited from earlier work
hΔCB1 receptor = tested on: T1, hΔCB1 receptor; test: Saturation binding assays (filtration and size-exclusion) with cell-free expressed hΔCB1; design: species or system human; settings: cell-free expressed from pET15hΔCB1his6 and pET26shΔCB1his6, with nanodiscs, no T4 lysozyme
T1 construct: hCB1 receptor with an N-terminal 102 amino acid truncated residues (hΔCB1); host or cells: cell-free expression with nanodiscs
Protocol: The radioactive binding assays were performed with [^3H] CP-55,940 radioligand.

Structure (SMILES)	effect of N-terminal 102 amino acid truncation on binding (hΔCB1)	specific binding (hΔCB1 receptor)
CCCCCCC(C)(C)c1ccc([C@@H]2C[C@H](O)CC[C@H]2CCCO)c(O)c1 [CP-55,940]	truncation does not affect the binding	
CCCCCCC(C)(C)c1ccc([C@@H]2C[C@H](O)CC[C@H]2CCCO)c(O)c1 [[^3H] CP-55,940]		did not show any specific binding
